# Biological target: T1, wild-type K-Ras protein (Homo sapiens, UniProt P01116)
# T1 construct: expressed in transfected cells; host or cells: HeLa cells, transient transfection
# Experiment: Degradation (knockdown) of forcibly expressed wild-type K-Ras protein in HeLa cells, FACS analysis
# Type: cell-based
# Protocol: A plasmid expressing a wild-type K-Ras protein (K-Ras-WT) was prepared using a plasmid (pMIR-DsRed-IRES-ecDHFR-HA-GFP) expressing an ecDHFR protein by RF cloning. The full-length cDNA clone (Accession No. AK292510) of a human K-ras gene was purchased from Independent Administrative Institution, the National Institute of Technology and Evaluation. PCR amplification was performed using KOD-Plus-Neo (TOYOBO CO., LTD) as a PCR enzyme.
# The plasmid was introduced into HeLa cells to transiently overexpress a wild-type K-Ras protein (specifically, a fusion protein of a wild-type K-Ras protein and GFP via a HA tag) or a DsRed protein for comparison in the cells.
# ScreenFect™A (Wako Pure Chemical Industries, Ltd.) as a transfection reagent was used to introduce the plasmid into HeLa cells by a routine procedure. The HeLa cells into which the plasmid had been introduced were seeded in a 24-well plate at a cell density of 4×10^4 cells/well, and then cultured under conditions of 37° C. and 5 vol % CO2 for 40 hours. […]
# A BD FACSCanto™ II (BD Biosciences) was used for flow cytometry, and the expression levels of GFP and DsRed protein in the cells were quantified. […] The GFP/DsRed ratio per cell was computed using an analysis software FlowJo™ (TOMY Digital Biology Co., Ltd.), and degradation (knockdown) of the wild-type K-Ras protein by TUS-007 was determined from a shift in a graph.
# T1 sequence (P01116 1-188 isoform P01116-2): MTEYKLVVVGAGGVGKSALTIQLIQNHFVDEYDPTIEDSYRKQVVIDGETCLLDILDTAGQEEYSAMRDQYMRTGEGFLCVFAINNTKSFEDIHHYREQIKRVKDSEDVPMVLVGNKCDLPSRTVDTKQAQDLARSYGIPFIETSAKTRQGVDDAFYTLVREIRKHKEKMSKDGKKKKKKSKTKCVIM
smiles,measurement,setting,value
CC[C@@H](C)[C@H](NC(=O)CCCCCCNC(=O)[C@H](CC(C)C)NC(=O)CNC(=O)c1cc(Cl)ccc1Cl)C(=O)Nc1ccc2[nH]c(Cc3c[nH]c4ccccc34)nc2c1 [TUS-007],degradation (knockdown) of wild-type K-Ras protein (shift of GFP/DsRed ratio graph),"24 hours after addition, vs control (DMSO)",degradation of the wild-type K-Ras protein was induced
same,degradation of wild-type K-Ras protein when MLN2238 is added together,"both TUS-007 and MLN2238 added, compared with TUS-007 alone",degradation of the wild-type K-Ras protein was inhibited

# Reference: patent US20190369111A1, “MOLECULAR KINETICS EVALUATION METHOD AND SCREENING METHOD” (Tokyo University of Science Foundation, priority 2016, published 2019)
